Measurements: patent publication US12377087B2, “Compounds for the treatment of cancer” (UNIVERSITY OF LOUISVILLE RESEARCH FOUNDATION, INC., priority 2015, dated 2025)

How the values were obtained:
H441 = assay: viable cell count of H441 cells; assay type: cell-based; details: H441, 48 hours
Protocol: (§1) Cell Viability: Cells were incubated in 20% trypan blue (Sigma) for 5 minutes. Cells excluding trypan blue were counted using a standard hemocytometer (Hausser Scientific) to determine total numbers of viable cells. Data are expressed as mean±SD of three experiments.

hT/LT/Ras cells = assay: viable cell count of hT/LT/Ras cells; assay type: cell-based, human; details: 48 hours
Description: Cell lines and cell culture: H460, H1299, H441, H522 and A549 non-small cell lung cancer (NSCLC), MDA-MB-231 (breast), LNCaP (prostatic) and HCT116 (colon) adenocarcinoma and Lewis lung carcinoma (LLC) cell lines were obtained from ATCC and used within 6 months of acquisition, PFKFB4^7 ear pinna Fibroblasts isolated from TamCre/loxP/PFKFB4^−/− mice were immortalized as described previously (Chesney J et al. Fructose-2,6-bisphosphate synthesis by 6-phosphofructo-2-kinase/fructose-2,6-bisphosphatase 4 (PFKFB4) is required for the glycolytic response to hypoxia and tumor growth. Oncotarget 2014 Aug. 30; 5(16):6670-86). Normal bronchial epithelial cells (NHBE) were obtained from Lonza and NHBE cells expressing telomerase, SV40 large T antigen and activated Ras (hT/LT/Ras) were a gift from Dr. B. J. Rollins, Dana Farber Cancer Institute. All cell lines were tested and found negative for mycoplasma (PCR Mycoplasma Detection Kit, ABM). […]
as §1

H460 cells [1] = assay: apoptosis by flow cytometry (annexin V / propidium iodide) in H460 cells; assay type: cell-based, human; details: H460, 10 μM 5MPN
Protocol: (§2) Flow Cytometry: To measure apoptosis, cells were stained with annexin V and propidium iodide and examined as previously described. […] DMSO used as vehicle. For cell cycle experiments, cells were detached, washed with cold PBS and fixed in 70% ethanol (4° C. 30 minutes). The cells then were pelleted by centrifugation, resuspended in PBS containing PI and RNase A, incubated at 37° C. in the dark for 30 minutes and analyzed by flow cytometry (BD FACSCalibur). Data were analyzed using FlowJo software (TREE STAR Inc.). Results were calculated as the mean±SD of three experiments.

LLC xenografts = assay: FDG uptake by micro-positron emission tomography in tumor-bearing mice; assay type: in vivo; details: 120 mg/kg by gavage, once
Protocol: At the end of the experiment, animals were euthanized, tumors removed and sections fixed in 10% formaldehyde for immunohistochemistry or snap-frozen in liquid nitrogen for analyses. Subsets of tumor-bearing mice (n=3) were injected i.p. with 2-[^18F]-fluoro-2-deoxyglucose (FDG, 150 μCi, 100 μl) and imaged by micro-positron emission tomography as previously described. Regions of interest in the tumors and cerebellum were quantified in quadruplicate and expressed as the mean±SD of the tumor:cerebellar FDG uptake ratio. Animal experiments were approved by the University of Louisville Institutional Animal Care and Use Committee.

H460 cells [2] = assay: cell cycle analysis by flow cytometry in H460 cells; assay type: cell-based, human
Protocol: as §2

H460 cells [3] = assay: ATP measurements in H460 cells; assay type: cell-based, human; details: H460, 10 μM 5MPN, 6-72 hours
Protocol: Cells were lysed and intracellular ATP determined as described previously. For example, cells were washed (while still adherent) with cold PBS 1×, lysed with Passive Lysis Buffer (1×; Molecular Probes, Invitrogen) added directly to the plates, and immediately harvested by scraping. The lysates were flash frozen (to −80° C.) and thawed (to 37° C.) once to accomplish complete lysis and then centrifuged (at 4° C.) for 30 seconds to clear the lysates. Intracellular ATP levels were determined using a bioluminescence assay (Molecular Probes), utilizing recombinant firefly luciferase and its substrate, D-luciferin. The luminescence was read in a TD-20/20 luminometer (Turner Designs) at 560 nm. The ATP values were calculated using an ATP standard curve. The protein concentrations of the lysates were estimated using the BCA assay (Pierce Biotechnology) and ATP was expressed as pmol/μg protein. All data are expressed as the mean±SD of three experiments. Statistical significance was assessed by the two-sample t test (independent variable).

HCT116 = assay: viable cell count of HCT116 cells; assay type: cell-based; details: HCT116, 48 hours
Protocol: as §1

[4] = tested on: panel of 97 protein kinases; assay: KINOMEscan active-site dependent competition binding assay; details: 10 μM; data not shown
Protocol: Kinase assays: The fructose-6-phosphate kinase activity of human recombinant PFKFB4 in the presence of DMSO±indicated 5MPN concentrations was assayed as previously described. The activity of 5MPN against 97 kinases was examined using a commercially available active-site dependent competition binding assay core service (KINOMEscanEDGE) that quantifies the capacity of lest agents to compete with an immobilized, active-site directed ligand using a DNA-tagged kinase and immobilized ligand and compound. For example, enzyme inhibition was studies using a ADP-Glo assay. […] ADP is converted into ATP, which is converted into light by a luciferase.

H460 cells [5] = assay: proliferation / viable cell count (trypan blue) of H460 cells; assay type: cell-based, human
Protocol: Cell Viability: Cells were incubated in 20% trypan blue (Sigma) for 5 minutes. Cells excluding trypan blue were counted using a standard hemocytometer (Hausser Scientific) to determine total numbers of viable cells. Data are expressed as mean±SD of three experiments. Proliferation Assays: H460 non-small cell lung cancer cells were plated in 24 well plates and exposed to increasing concentrations of the indicated inhibitors of Formula IV (FBR1-02 corresponds to [drawing 47] DMSO was used as vehicle. After 24, 48 and 72 hours of exposure, cells were detached and viable cells were counted by Trypan blue exclusion (representative counts at 48 hours shown).

[6] = tested on: H460 human lung adenocarcinoma xenografts; assay: H460 xenograft tumor growth in athymic mice; assay type: in vivo, BALB/c athymic mice; details: 120 mg/kg oral daily
[7] = H460 transfected with PFKFB4, 10 μM 5MPN, 24 hours

Compound: COc1cccc2c(NCCCCCO[N+](=O)[O-])ccnc12 [5MPN, 5-[(8-methoxyquinolin-4-yl)amino]pentyl nitrate]
- growth, viable cells (H441): dose-dependent reduction in growth
- cell growth, live cells (hT/LT/Ras cells): suppressed similar to other transformed cells
- apoptotic cells (H460 cells [1]): minimal increase
- 2-[18F]-fluoro-2-deoxyglucose uptake, positron emission tomography (LLC xenografts): marked reduction
- cell cycle distribution (G1, S, G2) (H460 cells [2]; H460, 10 μM 5MPN): marked G1 arrest
- G1 arrest with over-expression of PFKFB4 (H460 cells [2]; [7]): reversed
- ATP (H460 cells [3]): reduced
- growth, viable cells (HCT116): dose-dependent reduction in growth
- inhibition of a panel of 97 protein kinases [4]: not inhibited
- cell proliferation (H460 cells [5]; H460, 24-72 hours): reduction in cell proliferation
- growth, viable cells (H460 cells [5]; H460, 48 hours): dose-dependent reduction in growth
- anti-proliferative effect with over-expression of PFKFB4 (H460 cells [5]; [7]): protected
- body weight ([6]; H460-bearing athymic mice): without affecting body weight
- tumor growth of H460 xenografts ([6]; athymic mice): suppressed the growth
